Laboratory results taken from patent US20120157529A1 (priority 2009, published 2012).

T1: ToxT (Vibrio cholerae serotype O1, UniProt A5F384)
T1 construct: Full-length ToxT was cloned from Vibrio cholerae 0395; made in house; host or cells: E. coli BL21-CODONPLUS (DE3)-RIL
T1 sequence (A5F384 1-276): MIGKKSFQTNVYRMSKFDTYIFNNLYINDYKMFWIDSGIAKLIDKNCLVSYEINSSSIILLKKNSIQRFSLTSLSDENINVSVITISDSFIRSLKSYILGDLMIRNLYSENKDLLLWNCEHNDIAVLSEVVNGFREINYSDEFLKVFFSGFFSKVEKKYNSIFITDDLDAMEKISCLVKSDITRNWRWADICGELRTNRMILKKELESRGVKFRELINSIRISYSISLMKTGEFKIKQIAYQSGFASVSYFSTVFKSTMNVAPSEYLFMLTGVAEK


Key:
[1] = test system: V. cholerae strain 0395; assay: Infant mouse cholera model, survival at 48 hours post-infection; format: in vivo; conditions: for protection of mice from cholera / survival versus control and methanol groups: infant mouse, 48 hours post-infection, Tukey HSD p<0.05
Procedure: FIG. 3 is a means diamond plot. Mouse lethality data was converted to survival rates based on percentage of 48 hours at time of death. A one-way ANOVA was used to test for survival rate differences among the five groups in the challenge assay. […] Arcsine transformations were performed on the data to remove possible bias caused by percentages but there was no difference between transformed and non-transformed data. A means diamond illustrates a sample mean and 95% confidence interval. The line across each diamond represents the group mean. The vertical span of each diamond represents the 95% confidence interval for each group. Overlap marks are drawn above and below the group mean. […] The horizontal extent of each group along the x-axis (the horizontal size of the diamond) is proportional to the sample size of each level of the x variable. It follows that the narrower diamonds are usually the taller ones because fewer data points yield a less precise estimate of the group mean. Control is bacteria in broth. MeOH is methanol and MeOHC received a second dose of methanol 1 hour after infection. PA is 0.2% palmiteoleic acid dissolved in methanol and PAC includes a second dose of 0.2% palmiteoleic acid administered 1 hour after infection.
Palmiteoleic acid (0.2%) dissolved in methanol was co-administered orally with approximately a 10 lethal dose 50 (LD50) of V. cholerae strain 0395. In some cases an additional administration of palmiteoleic acid was given to the mice one hour after infection. The ability of palmiteoleic acid to prevent death from cholera was assessed at 48 hours post-infection. The results are presented in FIG. 3 as a means diamond plot.

[2] = test system: tcp and ctx operons; assay: β-galactosidase assay of tcp-lacZ and ctx-lacZ fusions in V. cholerae cultures with added fatty acids; format: cell-based, Vibrio cholerae; conditions: fatty acid at 0.02% in methanol; LB medium pH 6.5, 30° C., 18 hours
Procedure: Expression is based upon β-galactosidase activity of tcpA-lacZ and ctx-lacZ fusion constructs, respectively. Cells were grown in LB medium pH 6.5 at 30° C. for 18 hours +/− the indicated fatty acids at 0.02% dissolved in methanol. C, control with methanol; PA, sodium palmitate; POA, palmitoleic acid; OA, oleic acid.
β-galactosidase Assays. β-galactosidase activity was determined by conventional methods (Miller (1972) Experiments in Molecular Genetics (Cold Spring Harbor Laboratory Press, Cold Spring Harbor, N.Y.). The tcp-lacZ and ctx-lacZ strains MBN135 (Nye, et al. (2000) J. Bacteriol. 182:4295-4303) and KSK218 (Skorupski & Taylor (1997) Proc. Natl. Acad. Sci. USA 94:265-270) were grown for 18 hours in LB media pH 6.5 at 30° C. Either methanol or the indicated fatty acids were added to 0.02%.
To address whether cis-palmitoleate was capable of influencing the activity of ToxT, different UFAs and SFAs were added to cultures of V. cholerae strains carrying transcriptional fusions to the tcp and ctx operons. […].

[3] = target: T1, ToxT; assay: Electrophoretic mobility shift assay of ToxT binding to tcp promoter DNA; format: biochemical; conditions: fatty acid 0.002%; 30 minutes at 30° C.
Procedure: Electrophoretic Mobility Shift Assays. Single-stranded, forty base-pair complimentary oligos (Operon) from the tcp promoter (5′-GTGTTATTAAAAAAATAAAAAAACACAGCAAAAAATGACA-3′; SEQ ID NO:1) were end labeled with a biotin-conjugated dUTP using the Biotin 3′ End Labeling Kit (Pierce) following the manufacturer's instructions and then annealed to form double-stranded fragments. EMSA's were carried out using the LightShift Chemiluminescent EMSA Kit (Pierce) following the manufacturer's instructions. Briefly, 2.5 pmole, 4 pmole, 5 pmole of ToxT were mixed with 50 fmole of double-stranded labeled DNA in a binding buffer (10 mM Tris pH 7.5, 1 mM EDTA, 100 mM KCl, 5 mM MgCl2, 1 mM DTT, 0.3 mg mL^−1 BSA, 150 μg herring sperm DNA, and 10% glycerol). Fatty acids were dissolved in methanol and added to a final concentration of 0.002% using the same volume of methanol as a control. To show specificity, a 70-fold molar excess of unlabeled double-stranded tcp fragment and a 70-fold molar excess of unlabeled nonspecific DNA (42 base pairs) were added as controls. Reactions were then incubated for 30 minutes at 30° C. and loaded on a 1×TBE 6% polyacrylamide gel at 4° C. then transferred onto a positively charged membrane (HYBOND XL, GE Healthcare) and detected by chemiluminescence. An EMSA experiment was conducted using the control reagents from the LightShift Chemiluminescent EMSA Kit following the manufacturer's instructions while adding methanol and 0.02% fatty acids.

[4] = target: T1, ToxT; conditions: cited from earlier work
[5] = test system: ToxT-activated genes; conditions: cited from earlier work
[6] = target: ToxT (Vibrio cholerae O395, UniProt A5F384 A5F384:1-276); assay: EMSA; bound at 100-fold molar excess of protein (5 pmol ToxT to 50 fmol DNA), not at 50-fold; competed by 70-fold unlabeled probe; 5 mM MgCl2, 100 mM KCl, pH 7.5, 30; conditions: tags: full-length; expressed as intein/CBD fusion (pTXB1, NEB IMPACT-CN), tag cleaved with DTT; label: 3' biotin-dUTP

Molecule | reduction of expression of tcp and ctx operons (β-galactosidase activity of lacZ fusions) [2] | effect on ToxT binding to DNA (40 base-pair tcp promoter probe) [3] | inhibition of expression of ToxT-activated genes [5] | also measured
CCCCCC/C=C\CCCCCCCC(=O)O [palmitoleic acid, (Z)-9-hexadecenoic acid] | 6-8 fold | completely prevented ToxT from binding to DNA | – | mean survival rate (percentage of 48 hours at time of death) ([1]; 0.2% co-administered orally plus second dose 1 hour after infection, group PAC {5}): 89.389%; mean survival rate (percentage of 48 hours at time of death) ([1]; 0.2% in methanol co-administered orally with about 10 LD50 V. cholerae 0395, group PA {4}): 80.093%; protection of mice from cholera / survival versus control and methanol groups ([1]; listed as PA): significantly higher survival rates; protection of mice from cholera / survival versus control and methanol groups ([1]; listed as palmiteoleic acid): extremely effective at protecting the mice from cholera
O=C(O)CCCN1C(=O)c2cccc3cccc(c23)C1=O [virstatin, 4-[N-(1,8-naphthalimide)]-n-butyric acid] | – | – | – | effect on ToxT dimerization and activation of tcp and ctx promoter transcription [4]: interferes with ToxT's ability to dimerize and activate transcription of the tcp and ctx promoters
CCCCCCCCCCCCCCCC(=O)O [palmitic acid] | two-fold | no effect on ToxT binding | not shown to inhibit | –
CCCCC/C=C\C/C=C\CCCCCCCC(=O)O [linoleic acid] | – | – | strongly inhibit | –
CCCCCCCC/C=C\CCCCCCCC(=O)O [oleic acid] | 10-15 fold | completely prevented ToxT from binding to DNA | strongly inhibit | –
CCCCCCCCCCCCCCCCCC(=O)O [stearic acid] | – | – | not shown to inhibit | –
CCCCC/C=C\C/C=C\C/C=C\C/C=C\CCCC(=O)O [arachidonic acid] | – | – | strongly inhibit | –
tcp promoter 40 bp toxbox probe (dsDNA) DNA 1: GTGTTATTAAAAAAATAAAAAAACACAGCAAAAAATGACA DNA 2: TGTCATTTTTTGCTGTGTTTTTTTATTTTTTTAATAACAC | – | – | – | binding result [6]: binds
